# Measurements: US20250313552A1, “NICOTINATE ESTERS AND THERAPEUTIC METHODS OF USE THEREOF” (New Frontier Bio, Inc., priority 2024, published 2025)
# Test system: Keratinocytes
# Test: NAD assay in keratinocytes (NAD+ increase)
# Assay type: cell-based
# Settings: 3 hours incubation with compound, normalized NAD, ratio vs PBS control
# Method: Keratinocytes were plated in 12-well tissue culture plates at a density of 200,000 cells per well. The wells contained 0.75 mL DMEM growth medium with 2% HI FBS and cells were incubated overnight at 37° C. at 5% CO2. The following day, cells were dosed with the desired concentration of each compound and incubated for 3 hours. Following the incubation period, cell monolayers were washed with 200 μL of PBS. Cells were then allowed to lift using 0.25% trypsin for 15 minutes. After lifting, cells were collected into a sterile 1.5 mL centrifuge tube containing 400 μL of DMEM with 2% HI FBS. The cell lysates then centrifuged at 500×g for 5 minutes. Following this, the supernatant was aspirated off of the cell pellet and cells were washed again in 200 μL of PBS and centrifuged at 500×g for 5 minutes. PBS was aspirated off of the cell pellet and 400 μL of cold extraction buffer was added. Each centrifuge tube was then vortexed for 10 seconds. The resulting samples were centrifuged at 13,000×g for 10 minutes at 4° C. to remove insoluble material. After centrifuging, 50 μL of each sample was used to determine in duplicates the total protein concentration by a BCA protein assay kit. The remaining samples were then deproteinized by centrifuging and filtering them through a 10 kDa cut-off spin filter at 13,000xg for 10 minutes at 4° C. Following deproteinization, the samples were loaded into a 96 well plate in duplicates. The amount loaded was dependent on their protein concentration to ensure a uniform protein content for each sample. The final volume in the well was brought up to 50 μL using the cell extraction buffer. 50 μL of each standard was added to the appropriate wells. 98 μL of cycling buffer and 2 μL of NAD cycling enzyme were added to each well and the wells were incubated at room temperature for 5 minutes. 10 μL of developer was added to each well and the plate was incubated at room temperature for one hour. The reaction was stopped by adding 10 μL of stop solution to each well. The absorbance of each well was measured at 450 nm using a plate reader. A standard curve was plotted and normalized NAD values were determined.
row,Structure (SMILES),NAD+ increase ratio compared to PBS control
1,"CCCCCCCCCCCCCCCC(=O)OC[C@@H](O)[C@@H]1OC(=O)C(OC(=O)c2cccnc2)=C1OC(=O)c1cccnc1 [Compound 1, (S)-2-((R)-1-hydroxy-2-(palmitoyloxy)ethyl)-5-oxo-2,5-dihydrofuran-3,4-diyl dinicotinate]",8.19
2,"CCCCCCCCCCCCCCCC(=O)OC[C@@H](O)[C@@H]1OC(=O)C(OC(=O)c2cccnc2)=C1O [Compound 2, (S)-4-hydroxy-5-((R)-1-hydroxy-2-(palmitoyloxy)ethyl)-2-oxo-2,5-dihydrofuran-3-yl nicotinate]",2.53
3,"CCCCCCCCCCCCCCCC(=O)OC[C@@H](O)[C@@H]1OC(=O)C(O)=C1OC(=O)c1cccnc1 [Compound 3, (S)-4-hydroxy-2-((R)-1-hydroxy-2-(palmitoyloxy)ethyl)-5-oxo-2,5-dihydrofuran-3-yl nicotinate]",2.77
4,"CCCCCCCCCCCCCCCC(=O)OC[C@H](OC(=O)c1cccnc1)[C@H]1OC(=O)C(OC(=O)c2cccnc2)=C1OC(=O)c1cccnc1 [Compound 4, (R)-2-((S)-1-(nicotinoyloxy)-2-(palmitoyloxy)ethyl)-5-oxo-2,5-dihydrofuran-3,4-diyl dinicotinate]",3.04
5,"O=C(OCc1cc(=O)c(OC(=O)c2cccnc2)co1)c1cccnc1 [Compound 5, (5-(nicotinoyloxy)-4-oxo-4H-pyran-2-yl)methyl nicotinate]",1.51
6,"O=C1O[C@H]([C@@H](O)COC(=O)c2cccnc2)C(O)=C1O [Compound 6, (S)-2-((R)-3,4-dihydroxy-5-oxo-2,5-dihydrofuran-2-yl)-2-hydroxyethyl nicotinate]",0.99
7,"O=C1O[C@H]([C@@H](O)COC(=O)c2cccnc2)C(O)=C1O[C@H]1O[C@H](COC(=O)c2cccnc2)[C@@H](O)[C@H](O)[C@H]1O [Compound 7, (S)-2-hydroxy-2-((R)-3-hydroxy-5-oxo-4-(((2R,3R,4S,5S,6R)-3,4,5-trihydroxy-6-((nicotinoyloxy)methyl)tetrahydro-2H-pyran-2-yl)oxy)-2,5-dihydrofuran-2-yl)ethyl nicotinate]",1.5
8,"O=C1O[C@H]([C@@H](O)COC(=O)c2cccnc2)C(O)=C1O[C@H]1O[C@H](CO)[C@@H](O)[C@H](O)[C@H]1O [Compound 8, (S)-2-hydroxy-2-((R)-3-hydroxy-5-oxo-4-(((2R,3R,4S,5S,6R)-3,4,5-trihydroxy-6-(hydroxymethyl)tetrahydro-2H-pyran-2-yl)oxy)-2,5-dihydrofuran-2-yl)ethyl nicotinate]",1.5
9,"O=C(CCC[P+](c1ccccc1)(c1ccccc1)c1ccccc1)NCCOC(=O)c1cccnc1 [Compound 9, (4-((2-(nicotinoyloxy)ethyl)amino)-4-oxobutyl)triphenylphosphonium]",1.67
10,"O=C(/C=C/C=C/c1ccc2c(c1)OCO2)NCCOC(=O)c1cccnc1 [Compound 10, 2-((2E,4E)-5-(benzo[d][1,3]dioxol-5-yl)penta-2,4-dienamido)ethyl nicotinate]",1.57
11,"CC(C)(COC(=O)c1cccnc1)C(OC(=O)c1cccnc1)C(=O)NCCCOC(=O)c1cccnc1 (stereo not drawn) [Compound 11, 2,2-dimethyl-4-((3-(nicotinoyloxy)propyl)amino)-4-oxobutane-1,3-diyl dinicotinate]",2.7
12,"NC(=O)c1ccc[n+]([C@@H]2O[C@H](COC(=O)CCCCC3CCSS3)[C@@H](OC(=O)CCCCC3CCSS3)[C@H]2OC(=O)CCCCC2CCSS2)c1 (stereo partly drawn) [Compound 12, 1-((2R,3R,4R,5R)-3,4-bis((5-(1,2-dithiolan-3-yl)pentanoyl)oxy)-5-(((5-(1,2-dithiolan-3-yl)pentanoyl)oxy)methyl)tetrahydrofuran-2-yl)-3-carbamoylpyridin-1-ium]",1.16
13,"NC(=O)c1ccc[n+]([C@@H]2O[C@H](COC(=O)c3cccnc3)[C@@H](OC(=O)c3cccnc3)[C@H]2OC(=O)c2cccnc2)c1 [Compound 13, 1-((2R,3R,4R,5R)-3,4-bis(nicotinoyloxy)-5 ((nicotinoyloxy)methyl)tetrahydrofuran-2-yl)-3-carbamoylpyridin-1-ium]",1.67
14,"CCCCCCCCCCCCCCCC(=O)OC[C@H](O)[C@H]1OC(=O)C(OC(=O)c2cccnc2)=C1OC(=O)c1cccnc1 [Compound 14, (R)-2-((S)-1-hydroxy-2-(palmitoyloxy)ethyl)-5-oxo-2,5-dihydrofuran-3,4-diyl dinicotinate]",8.33
15,"CCCCCCCCCCCCCCCC(=O)OC[C@@H](O)[C@H]1OC(=O)C(OC(=O)c2cccnc2)=C1OC(=O)c1cccnc1 [Compound 15, (R)-2-((R)-1-hydroxy-2-(palmitoyloxy)ethyl)-5-oxo-2,5-dihydrofuran-3,4-diyl dinicotinate]",1.84
